Measured values published in ChEMBL document CHEMBL3046004, “Esterase-mediated resistance to pyrethroids in field populations of Helicoverpa armigera (Lepidoptera: Noctuidae) from Central Africa” (2009).

Tests used:
Assay type in all cases: functional
Helicoverpa armigera [1] = test: Resistance factor, ratio of LD50 for fourth-instar larval stage of Helicoverpa armigera field strain Gaschiga isolated from tomato plant to LD50 for fourth-instar larval stage of pyrethroid-susceptible Helicoverpa armigera laboratory strain BK-77
Helicoverpa armigera [2] = test: Resistance factor, ratio of LD50 for fourth-instar larval stage of Helicoverpa armigera field strain Ngong to LD50 for fourth-instar larval stage of pyrethroid-susceptible Helicoverpa armigera laboratory strain BK-77
Helicoverpa armigera [3] = test: Insecticidal activity against fourth-instar larval stage of Helicoverpa armigera field strain Pitoa isolated from tomato plant assessed as mortality applied topically onto thorax measured after 48 hr
Helicoverpa armigera [4] = test: Insecticidal activity against fourth-instar larval stage of Helicoverpa armigera field strain Pitoa isolated from maize plant assessed as mortality applied topically onto thorax measured after 48 hr
Helicoverpa armigera [5] = test: Insecticidal activity against fourth-instar larval stage of pyrethroid-resistance Helicoverpa armigera laboratory strain GS-RR06 assessed as mortality applied topically onto thorax measured after 48 hr
Helicoverpa armigera [6] = test: Insecticidal activity against fourth-instar larval stage of pyrethroid-susceptible Helicoverpa armigera laboratory strain BK-77 assessed as mortality applied topically onto thorax measured after 48 hr
Helicoverpa armigera [7] = test: Resistance factor, ratio of LD50 for fourth-instar larval stage of Helicoverpa armigera field strain Pitoa isolated from tomato plant to LD50 for fourth-instar larval stage of pyrethroid-susceptible Helicoverpa armigera laboratory strain BK-77
Helicoverpa armigera [8] = test: Resistance factor, ratio of LD50 for fourth-instar larval stage of Helicoverpa armigera field strain Pitoa isolated from maize plant to LD50 for fourth-instar larval stage of pyrethroid-susceptible Helicoverpa armigera laboratory strain BK-77
Helicoverpa armigera [9] = test: Resistance factor, ratio of LD50 for fourth-instar larval stage of pyrethroid-resistance Helicoverpa armigera laboratory strain GS-RR06 to LD50 for fourth-instar larval stage of pyrethroid-susceptible Helicoverpa armigera laboratory strain BK-77
Helicoverpa armigera [10] = test: Insecticidal activity against fourth-instar larval stage of Helicoverpa armigera field strain Gaschiga isolated from tomato plant assessed as mortality applied topically onto thorax measured after 48 hr
Helicoverpa armigera [11] = test: Insecticidal activity against fourth-instar larval stage of Helicoverpa armigera field strain Ngong isolated from cotton plant assessed as mortality applied topically onto thorax measured after 48 hr
Helicoverpa armigera [12] = test: Insecticidal activity against fourth-instar larval stage of Helicoverpa armigera field strain Tchollire isolated from cotton plant assessed as mortality applied topically onto thorax measured after 48 hr
Helicoverpa armigera [13] = test: Resistance factor, ratio of LD50 for fourth-instar larval stage of Helicoverpa armigera field strain Tchollire to LD50 for fourth-instar larval stage of pyrethroid-susceptible Helicoverpa armigera laboratory strain BK-77

Structure (SMILES)	Ratio (Helicoverpa armigera [1])	Ratio (Helicoverpa armigera [2])	LD50 (Helicoverpa armigera [3])	LD50 (Helicoverpa armigera [4])	LD50 (Helicoverpa armigera [5])	LD50 (Helicoverpa armigera [6])	Ratio (Helicoverpa armigera [7])	Ratio (Helicoverpa armigera [8])	Ratio (Helicoverpa armigera [9])	LD50 (Helicoverpa armigera [10])	LD50 (Helicoverpa armigera [11])	LD50 (Helicoverpa armigera [12])	Ratio (Helicoverpa armigera [13])
CCCSP(=O)(OCC)Oc1ccc(Br)cc1Cl (stereo not drawn) [PROFENOFOS]	5.3	4	36.2 microgAi/g	19.5 microgAi/g	17.7 microgAi/g	4.6 microgAi/g	7.9	4.2	3.9	24.3 microgAi/g	18.5 microgAi/g	–	–
CC1(C)[C@H](C(=O)O[C@H](C#N)c2cccc(Oc3ccccc3)c2)[C@@H]1C=C(Br)Br [DELTAMETHRIN]	316	134	37.8 microgAi/g	29.5 microgAi/g	148.6 microgAi/g	0.05 microgAi/g	756	590	2972	15.8 microgAi/g	6.7 microgAi/g	3 microgAi/g	60
CCOc1ccc(C(C)(C)COCc2cccc(Oc3ccccc3)c2)cc1 [ETOFENPROX]	4	2	531.4 microgAi/g	285.3 microgAi/g	135.7 microgAi/g	55.5 microgAi/g	10	5	2	229.3 microgAi/g	136.6 microgAi/g	152.2 microgAi/g	3
COC(=O)N(C(=O)N1CO[C@@]2(C(=O)OC)Cc3cc(Cl)ccc3C2=N1)c1ccc(OC(F)(F)F)cc1 [INDOXACARB]	0.4	1.4	1.3 microgAi/g	0.7 microgAi/g	0.7 microgAi/g	0.7 microgAi/g	2	1.1	1	0.3 microgAi/g	0.9 microgAi/g	–	–
